Experimental data: US20090131308A1, “Splice Variants of ErbB Ligands, Compositions and Uses Thereof” (AGOS BIOTECH LTD., priority 2003, published 2009)
Entries after “also recorded” stand apart in the source; their conditions may differ. No end group written: not given here.

Key:
[1] = system: BaF/3 cells transfected with the EGFR (BaF/3-EGFR); test: Activatory ligand stimulated mitogenesis assay; type: cell-based; settings: for potentiation of mitogenesis of BaF/3-EGFR cells: titrating concentrations of variant ligand, preliminary results, data not shown
Method: BaF/3 cells transfected with the EGFR (BaF/3-EGFR; Walker et al, Growth Factors 16: 53-67, 1998) are washed three times to remove residual IL-3 and resuspended in RPMI 1640+10% FCS. Cells are then seeded into 96 well plates using a Biomek 2000 (Beckman) at 2×10^4 cells per 200 microlitres and incubated for 4 h at 37 C in 10% CO2. To determine the efficacy of this system with a positive control, cells are first grown with titrating concentrations of activatory ligand EGF alone, to determine the minimum amount of ligand required to achieve maximal or sub-maximal receptor-mediated mitogenesis for these cells. […] Titrating concentrations of ErbB variant ligands are added to the cells to test their mitogenic potential. In a similar manner, BaF/3 or different cells expressing a range of ErbB receptors, rendering them mitogenically responsive to ErbB ligand stimulation, are used to test these and other variant ligands for activatory ligand stimulated mitogenesis (exemplified in Harari et. al., 1999).

Betacellulin = test: BIAcore ligand-ligand interaction, immobilized Betacellulin; type: binding, human or bovine; settings: peptide 0.3-10 μM (in some cases 50 μM); BIAcore 3000, blank channel subtracted; FIG. 6
Method: Biosensor analyses were performed using a BIAcore™ 3000. A CM-5 (research grade) sensor chip was immobilized with recombinant human or bovine EGF, TGF alpha and Betacellulin on flowcells 2, 3 and 4, respectively. Immobilizations were performed using amine coupling chemistry in 10 mM Sodium Acetate at pH 4.2. Varying concentrations (0.3 μM, 0.6 μM, 1.25 μM, 2.5 μM, 5 μM, 10 μM [and in some cases 50 μM]) of hNRG2(1-32), mEGF(1-32) & hEGF(1-32) were injected (30 μl) over the sensor surfaces in HBS running buffer (10 mM HEPES, 3.4 mM EDTA, 0.15M NaCl, 0.005% Tween 20, pH 7.4) at a flow rate of 5 μl/min. The surfaces were then regenerated by injecting 10 μl of 10 mM NaOH at a flow rate of 20 μl/min. The resulting sensor curves were subtracted against the blank channel (Flowcell 1) to yield the specific response.

[2] = system: soluble ErbB1 (soluble EGFR amino acids 1-501 and 1-621); test: BIAcore receptor binding assay, immobilized soluble EGFR; settings: peptide up to 10 uM; BIAcore 3000, CM-5 chip; data not shown
Method: (§1) Biosensor analyses were performed using a BIAcore™ 3000. A CM-5 (research grade) sensor chip was immobilized with soluble EGFR (amino acids 1-501), soluble EGFR (amino acids 1-621) and soluble ErbB2 (amino acids 1-509) on flowcells 2, 3 and 4, respectively. Immobilizations were performed using amine coupling chemistry in 10 mM Sodium Acetate at pH 4.2. Varying concentrations (1.25 μM, 2.5 μM, 5 μM and 10 μM) of peptides were injected (30 μl) over the sensor surfaces in HBS running buffer (10 mM HEPES, 3.4 mM EDTA, 0.15M NaCl, 0.005% Tween 20, pH 7.4) at a flow rate of 5 μl/min. The surfaces were then regenerated by injecting 10 μl of 10 mM NaOH at a flow rate of 20 μl/min. The resulting sensor curves were subtracted against the blank channel (Flowcell 1) to yield the specific response.

[3] = target: T1, soluble ErbB2 (amino acids 1-509) (Homo sapiens, UniProt P04626); test: BIAcore receptor binding assay, immobilized soluble ErbB2; settings: peptide up to 10 uM; BIAcore 3000, CM-5 chip; data not shown
T1 construct: soluble ErbB2 (amino acids 1-509)
Method: as §1

| Substance | mitogenic response of BaF/3-EGFR cells ([1]; positive control at a concentration of approximately 200 μM) | binding to immobilized Betacellulin (Betacellulin) | potentiation of mitogenesis of BaF/3-EGFR cells [1] | binding to immobilized soluble ErbB1 [2] | binding to immobilized soluble ErbB2 [3] |
| --- | --- | --- | --- | --- | --- |
| EGF: activatory ligand EGF purified from mouse salivary glands, positive control (NSYPGCPSSYDGYCLNGGVCMHIESLDSYTCNCVIGYSGDRCQTRDLRWWELR; Epidermal growth factor; UniProt P01132 977-1029, looked up) [reference compound] | sub-maximal to maximal mitogenic response | – | – | – | – |
| NSDSECPLSHDGYCLHDGVCMYIEALDKYACK-OH (not fully specified; C-terminal free acid) [hEGF(1-32)] | – | no binding | – | – | – |
| GHARKCNETAKSYCVNGGVCYYIEGINQLSCK-OH (also: air-oxidised refolding, disulfide pairing not given here) [hNRG2(1-32)] | – | weak binding; also recorded: low affinity interaction | do not potentiate mitogenesis | failed to demonstrate measurable binding | failed to demonstrate measurable binding |
| NSYPGCPSSYDGYCLNGGVCMHIESLDSYTCK-OH (C-terminal free acid) [mEGF(1-32)] | – | weak binding; also recorded: low affinity interaction | do not potentiate mitogenesis | failed to demonstrate measurable binding | failed to demonstrate measurable binding |
